“And” between values parts separate entries of the source, which are not always exact repeats. Identical values can stand only once. Like-named read-outs stand apart in the source and are kept apart here.
Columns and labels:
[1] = DPPH radical scavenging assay; settings: for IC50: 0.03 to 1 mg/mL, 1 h, mean ± SD, triplicate, read-out: IC50 (mM) for DPPH Scavenging Potency
Procedure: The IC50 values for DPPH were calculated from the plot of the scavenging effect against the compound concentration.
The compounds’ capacities to scavenge the stable radical 1,1 diphenyl-2-picrylhydrazyl (DPPH) formed in solution by donation of a hydrogen atom or an electron was investigated according to the method described by Bersuder and coworkers. Due to the fact that the initial blue/purple solution of diphenyl picrylhydrazine changes to yellow in the presence of compounds with a capacity to scavenge DPPH free radicals, this reaction is used as a measure of a compound’s ability to scavenge any free radical. Briefly, a 0.5 mL volume of DPPH ethanolic solution was mixed with an equal volume of each sample concentration (0.03 to 1 mg/mL), shaken strongly and incubated at room temperature for 1 h in darkness. The absorbance of the residual DPPH radicals was measured at 519 nm and compared to that of the control (without the tested compound). DPPH radical scavenging was calculated using the following formula: Scavenging effect (%) = (1 − Acompound/AControl) × 100, where Acompound and Acontrol are the absorbances of the tested compound and of the control, respectively. A plot of the scavenging effect (%) versus the sample concentration was also performed to determine the compound concentration providing 50% inhibition (IC50).

[2] = system: K. pneumonia (ATCC 700603); experiment: Antibacterial agar diffusion method (inhibition zone); format: cell-based
Procedure: (§1) The results for the in vitro antibacterial properties of the synthesized compounds against five Gram-positive and four Gram-negative human-pathogenic strains, which were assessed by both the agar diffusion method (based on inhibition zone (IZ)) and the broth dilution bioassay (for the determination of the half-maximal inhibitory concentration (IC50) values), using ampicillin as the reference antibiotic drug, are shown in Table 2 and Table 3.
(§2) The antibacterial activity of all synthesized compounds was evaluated against the Gram-negative strains E. coli (ATCC 25966), K. pneumonia (ATCC 700603), P. aeruginosa (ATCC 27853) and S. enteric (ATCC 43972) and against the Gram-positive strains B. cereus (ATCC 14579), B. subtilis (ATCC 6633), E. faecalis (ATCC 29122), S. aureus (ATCC 25923) and S. epidermidis (ATCC 14990), using the agar diffusion method through measuring the appearance of the inhibition zone on the surface of the top agar, as reported by Berghe and Vlietinck. Ampicillin (10 µg/well) was used as the positive reference standard. Bacterial viability was also investigated by determining the colony-forming ability (CFU) of bacteria incubated at different time intervals without or with appropriate amounts of the compound, which were mixed with 2 ×10^7 CFU/mL in sterile BHI and incubated under shaking for 60 min at 37 °C. Samples were serially diluted into sterile BHI, streaked onto media agar plates and incubated for 24 h at 37 °C. The antibacterial potency of the tested compounds was expressed as the residual number of CFUs with reference to the initial inoculums. The results presented as the half-maximal (50 %) inhibitory concentration (IC50) values are the means of three different measurements.

[3] = system: P. aeruginosa (ATCC 27853); experiment: as above; format: cell-based
Procedure: as §1, §2

E. coli (ATCC 25966) [4] = experiment: as above; format: cell-based; settings: E. coil (ATCC 25966)
Procedure: as §1, §2

E. faecalis (ATCC 29122) [5] = experiment: as above; format: cell-based
Procedure: as §1, §2

S. aureus (ATCC 25923) [6] = experiment: as above; format: cell-based
Procedure: as §1, §2

[7] = system: S. epidermidis (ATCC 14990); experiment: as above; format: cell-based
Procedure: as §1, §2

B. cereus (ATCC 14579) [8] = experiment: as above; format: cell-based
Procedure: as §1, §2

B. subtilis (ATCC 6633) [9] = experiment: as above; format: cell-based
Procedure: as §1, §2

[10] = system: K. pneumonia (ATCC 700603); experiment: Antibacterial viability (CFU) assay, IC50; format: cell-based; settings: Klebsiella pneumoniae, ATCC700603
Procedure: as §1, §2

S. enteric (ATCC 43972) [11] = experiment: Antibacterial viability (CFU) assay, IC50; format: cell-based
Procedure: as §1, §2

[12] = system: P. aeruginosa (ATCC 27853); experiment: Antibacterial viability (CFU) assay, IC50; format: cell-based; settings: Pseudomonas aeruginosa, ATCC27853
Procedure: as §1, §2

E. coli (ATCC 25966) [13] = experiment: Antibacterial viability (CFU) assay, IC50; format: cell-based; settings: Escherichia coli, ATCC25966; E. coil (ATCC 25966)
Procedure: as §1, §2

E. faecalis (ATCC 29122) [14] = experiment: Antibacterial viability (CFU) assay, IC50; format: cell-based; settings: Enterococcus faecalis, ATCC29122
Procedure: as §1, §2

S. aureus (ATCC 25923) [15] = experiment: Antibacterial viability (CFU) assay, IC50; format: cell-based; settings: Staphylococcus aureus, ATCC25923
Procedure: as §1, §2

[16] = system: S. epidermidis (ATCC 14990); experiment: Antibacterial viability (CFU) assay, IC50; format: cell-based; settings: Staphylococcus epidermidis, ATCC14990
Procedure: as §1, §2

B. cereus (ATCC 14579) [17] = experiment: Antibacterial viability (CFU) assay, IC50; format: cell-based; settings: Bacillus cereus, ATCC14579
Procedure: as §1, §2

B. subtilis (ATCC 6633) [18] = experiment: Antibacterial viability (CFU) assay, IC50; format: cell-based
Procedure: as §1, §2

HCT-116 cells = experiment: Cell viability (cytotoxicity, LDH release) assay; format: cell-based; settings: Homo sapiens, 24 h; for viability at 100 µg/mL: read-out: percent of viable cells
Procedure: The synthesized compounds were also examined at four concentrations (10, 25, 50 and 100 µg/mL) for their cytotoxic effects on human colorectal cancer HCT-116 cells after their incubation together for 24 h.
Cytotoxic potency was examined for a human colon cancer cell line HCT-116 (American Type Culture Collection; Manassas, VA, USA) using various amounts of each compound (10, 25, 50 and 100 µg). Samples were diluted in Dulbecco’s Modified Eagle’s Medium, consisting of 10% Fetal Bovine Serum, and added to cells grown and cultured for 24 h in a 5% CO2-humidified incubator at 37 °C. Then, the activity of lactate dehydrogenase released from damaged cells was determined in the collected supernatant aliquots using an ELISA endpoint assay (Benchmark Plus, Bio-Rad, Hercules, CA, USA). As positive and negative controls, respectively, 0.1% Triton X-100 in the assay medium and the assay medium only were used. Cell viability, shown as mean values ± SDs (n = 3), was expressed as a relative percentage of the OD values determined at 600 nm in compound-treated cells and the control.

[19] = Reducing power assay (FRAC, Fe3+ to Fe2+); settings: 0-1 mg/mL, absorbance 700 nm
Procedure: Secondly, FRAC was determined over the concentration range of 0.0−1 mg/mL via monitoring Fe^3+−Fe^2+ transformation in the presence of the studied compounds and the reference antioxidant BHT to estimate the values of efficient concentration (EC50), expressed in mM.
The reducing power of the studied compounds was assessed according to Oyaizu’s method. Briefly, different concentrations (ranging from 0 to 1 mg/mL) of each tested compound were first mixed with 1 mL of 0.2 M sodium phosphate buffer (pH 6.6) and 1 mL of 1% potassium ferricyanide (K3Fe(CN)6) and incubated at 50 °C for 20 min. After the addition of 1.25 mL of 20% trichloroacetic acid (TCA), the mixture was centrifuged for 10 min at 3000 rpm and the upper layer solution was then mixed with 0.5 mL of 0.1% fresh ferric chloride and an equal volume of deionized water. Finally, the absorption of the resulting mixture was measured at 700 nm using a UV spectrophotometer against distilled water as the blank, while butylated hydroxytoluene (BHT) was used as a positive control. The sample ferric reducing power capability was indicated by increased absorbance.

S. enteric (ATCC 43972) [20] = experiment: Antibacterial agar diffusion method (inhibition zone); format: cell-based
Procedure: as §1, §2

[21] = Bacillus subtilis, ATCC6633, B. subtilis (ATCC 6633)

Structure (SMILES) | IC50 [1] | DPPH Radical Scavenging Effenciency (%) at 1 mg/mL [1] | melting point | IZ (mm) [2] | IZ (mm) [3] | IZ (mm) (E. coli (ATCC 25966) [4]) | IZ (mm) (E. faecalis (ATCC 29122) [5]) | IZ (mm) (S. aureus (ATCC 25923) [6]) | IZ (mm) [7] | IZ (mm) (B. cereus (ATCC 14579) [8]) | IZ (mm) (B. subtilis (ATCC 6633) [9]) | IC50 [10] | IC50 (S. enteric (ATCC 43972) [11]; read-out: IC50) | IC50 [12] | IC50 (E. coli (ATCC 25966) [13]) | IC50 (E. faecalis (ATCC 29122) [14]) | IC50 (S. aureus (ATCC 25923) [15]) | IC50 [16] | IC50 (B. cereus (ATCC 14579) [17]) | IC50 (B. subtilis (ATCC 6633) [18]; [21]) | also measured
COc1ccc(C2C(C#N)=C(N)OC(C)=C2C(=O)OCc2ccccc2)cc1 (centres unmarked) [4j, 6-Amino-5-cyano-4-(4-methoxy-phenyl)-2-methyl-4H-pyran-3-carboxylic acid benzyl ester] | 0.194 mM | 88.00% and 88.00 ± 1.41% | 170 to 172 °C | 12.0 ± 1.4 mm | 14.5 ± 0.7 mm | 10.5 ± 0.71 mm | 23.20 mm and 23.20 ± 0.57 mm | 25.25 mm and 25.25 ± 1.06 mm | 26.65 mm and 26.65 ± 0.92 mm | 24.50 mm and 24.50 ± 0.71 mm | 21.50 mm and 21.50 ± 0.71 mm | 48.4 ± 3.99 µM | 51.8 ± 2.92 µM | 49.7 ± 4.78 µM | 57.1 ± 0.8 µM | 28.2 ± 1.51 µM | 33.3 ± 1.7 µM | 33.3 ± 1.7 µM | 27.6 ± 1.51 µM | 23.6 to 36.8 µM | IC50 (S. enteric (ATCC 43972) [11]): 49.7 µM; IC50 (B. subtilis (ATCC 6633) [18]; B. subtilis (ATCC 6633)): 23.6 ± 0.37 µM; viability at 100 µg/mL (HCT-116 cells): 94%; EC50 [19]: 74 ± 4 µM
CCOC(=O)C1=C(C)OC(N)=C(C#N)C1c1cccc(OC)c1[N+](=O)[O-] (centres unmarked) [4b, 6-Amino-5-cyano-4-(3-methoxy-2-nitro-phenyl)-2-methyl-4H-pyran-3-carboxylic acid ethyl ester] | 2.56 ± 0.117 mM | 23.25 ± 1.06% | 220 to 222 °C | 1.5 ± 0.7 mm | 2.5 ± 0.7 mm | 2.5 ± 0.71 mm | 15.50 ± 0.71 mm | 20.50 ± 0.71 mm | 23.50 mm and 23.50 ± 0.71 mm | 16.50 ± 0.71 mm | 19.50 ± 0.71 mm | 99.1 ± 2.5 µM | 118 ± 3.34 µM | 84 ± 5.01 µM | 100 ± 3.9 µM | 56.8 ± 1.59 µM | 50.2 ± 1.39 µM | 32.4 ± 1.39 µM | 43.1 ± 1.98 µM | 49.1 ± 1.39 µM | viability at 100 µg/mL (HCT-116 cells): 11 to 32.5%; IC50 (HCT-116 cells; read-out: Mean IC50 (µM) of cytotoxicity): 102 ± 8.83 µM; IC50 (HCT-116 cells; read-out: Mean IC50 (µg/mL) of cytotoxicity): 36.5 ± 3.18 µg/mL; EC50 [19]: 1200 ± 79 µM
CC1(C)S[C@@H]2[C@H](NC(=O)[C@H](N)c3ccccc3)C(=O)N2[C@H]1C(=O)O [Ampicillin, reference compound] | – | – | – | 21.0 ± 1.4 mm | 21.5 ± 0.7 mm | 23.5 ± 0.71 mm | 24.50 ± 0.71 mm | 21.50 ± 0.71 mm | 22.50 ± 0.71 mm | 23.50 ± 0.71 mm | 25.50 ± 0.71 mm | 32.9 ± 2.29 µM | 14.9 ± 0.34 µM | 41.5 ± 1.72 µM | 58 ± 4.87 µM | 36.5 ± 3.03 µM | 38.6 ± 2 µM | 50.1 ± 3.43 µM | 25.8 ± 0.57 µM | 37.2 ± 1.43 µM | IZ (mm) (S. enteric (ATCC 43972) [20]): 19.5 ± 0.7 mm; IZ (mm) (E. faecalis (ATCC 29122) [5]; listed as ampicillin): 24.50 mm; IZ (mm) (S. aureus (ATCC 25923) [6]; listed as ampicillin): 21.50 mm; IZ (mm) ([7]; listed as ampicillin): 22.50 mm; IZ (mm) (B. cereus (ATCC 14579) [8]; listed as ampicillin): 23.50 mm; IZ (mm) (B. subtilis (ATCC 6633) [9]; listed as ampicillin): 25.50 mm
